According to US9550811B2, “Peptide scaffold design” (BIONOR IMMUNO AS, priority 2010, dated 2017):
Where no end group is shown, it is not given here. [ ]: non-standard residue; d: D form. Cit = NC(=O)NCCC[C@H](N)C(=O)O; Nle = CCCC[C@H](N)C(=O)O

Assays:
Assay in all cases: REVEAL binding assay
Conditions in all cases: score as percentage of the signal generated by the positive control peptide
[1] = test system: HLA-B15
[2] = test system: HLA-B35
From the text: (§2) HLA-A1, HLA-A2, HLA-A3, HLA-A11, HLA-A24, HLA-A29, HLA-B7, HLA-B8, HLA-B14, HLA-B15, HLA-B27, HLA-B35, HLA-B40.
(§3) The REVEAL™ binding assay determined the ability of each candidate peptide to bind to one or more MHC class I alleles and stabilizing the MHC-peptide complex. […] Detection is based on the presence or absence of the native conformation of the MHC-peptide complex. Each peptide is given a score relative to the positive control peptide, which is a known T cell epitope.

[3] = test system: HLA-A29
From the text: as §2, §3

[4] = test system: HLA-B14
[5] = test system: HLA-A1
Method: Binding properties to HLA for the ninemers listed in table 6 were tested for the following HLA-classes:
as §2, §3

[6] = test system: HLA-B8
From the text: as §2, §3

[7] = test system: HLA-B40
How it was run: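 Read-out: presence or absence of natively folded MHC–peptide complex. Values expressed as % of positive-control epitope signal per allele, plus putative pass/fail; weaker-binding intermediate control included.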

[8] = target: HLA-A3 (Homo sapiens, UniProt P04439)
Chain of HLA-A3 (P04439 25-299): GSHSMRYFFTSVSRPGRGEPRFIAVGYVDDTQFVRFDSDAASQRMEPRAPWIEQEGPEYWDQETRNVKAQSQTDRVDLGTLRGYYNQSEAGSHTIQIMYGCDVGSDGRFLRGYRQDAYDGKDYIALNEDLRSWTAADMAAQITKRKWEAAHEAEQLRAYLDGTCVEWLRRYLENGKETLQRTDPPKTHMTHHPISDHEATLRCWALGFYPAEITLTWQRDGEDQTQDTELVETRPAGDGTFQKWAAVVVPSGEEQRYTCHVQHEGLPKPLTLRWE
Chain of HLA-A3 (P61769 21-119, further chain): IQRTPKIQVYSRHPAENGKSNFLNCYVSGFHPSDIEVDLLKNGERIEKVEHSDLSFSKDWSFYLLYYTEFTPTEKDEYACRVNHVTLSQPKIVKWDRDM
How it was run: (§1)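 Synthetic nonamer peptides were tested for their ability to bind and stabilize MHC class I–peptide complexes, detected by the native conformation of the complex. Each peptide is scored relative to a positive-control known T-cell epitope.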

[9] = target: HLA-B7 (Homo sapiens, UniProt P01889)
Chain of HLA-B7 (P61769 21-119): as the sequence (P61769 21-119, further chain) above
Chain of HLA-B7 (P01889 25-299): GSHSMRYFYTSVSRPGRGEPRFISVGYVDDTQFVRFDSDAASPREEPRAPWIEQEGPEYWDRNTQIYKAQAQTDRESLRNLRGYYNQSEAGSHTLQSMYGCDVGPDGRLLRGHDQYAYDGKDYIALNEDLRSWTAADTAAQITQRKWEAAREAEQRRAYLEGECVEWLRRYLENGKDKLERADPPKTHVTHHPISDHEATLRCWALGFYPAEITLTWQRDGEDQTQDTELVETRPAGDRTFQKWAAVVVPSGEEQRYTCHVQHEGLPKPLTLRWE
How it was run: as §1

[10] = target: HLA-A2 (Homo sapiens, UniProt P04439, D140Y/D185E/D98H/E176V/E277Q/G131W/G231S/I119V/I121R/I166T/I218V/N151K/N90K/P208A/P217A/Q86G/Q94H/R138H/R169H)
How it was run: as §1

[11] = target: HLA-B27 (Homo sapiens, UniProt P01889, D138H/D201E/E176V/E204Q/G107R/H137Y/K202T/N104T/N87E/Q56L/Q94K/R106L/R155S/R180L/S101D/S121N/S48T/Y140D/Y33H/Y91C)
How it was run: as §1

[12] = target: HLA-A11 (Homo sapiens, UniProt P04439, A114D/F33Y/S129P)
How it was run: as §1

[13] = test system: HLA-A24

Row | Substance | REVEAL binding score, HLA-type B15 [1] [%] | REVEAL binding score, HLA-type B35 [2] [%] | REVEAL binding score, HLA-type A29 [3] [%] | REVEAL binding score, HLA-type B14 [4] [%] | REVEAL binding score, HLA-type A1 [5] [%] | REVEAL binding score, HLA-type B8 [6] [%] | REVEAL binding score, HLA-type B40 [7] [%] | REVEAL binding score, HLA-type A3 [8] [%] | REVEAL binding score, HLA-type B7 [9] [%] | REVEAL binding score, HLA-type A2 [10] [%] | REVEAL binding score, HLA-type B27 [11] [%] | REVEAL binding score, HLA-type A11 [12] [%] | REVEAL binding score, HLA-type A24 [13] [%]
1 | ADLMGYIPL | 8.30 | 2.08 | 14.51 | 0.13 | 31.05 | 11.40 | 26.33 | 1.93 | 0.73 | 8.06 | 1.01 | 3.35 | 0.61
2 | TFSIYLIVS | 8.63 | 2.48 | 8.58 | 0.37 | 9.93 | 9.52 | 23.23 | 0.91 | 1.28 | 2.02 | 1.49 | 2.89 | 0.60
3 | YATGNLPGC | 5.09 | 4.52 | 18.82 | 0.41 | 8.10 | 9.51 | 77.49 | 3.67 | 0.76 | 22.46 | 2.44 | 2.16 | 1.20
4 | GGQIVGGVY | 110.34 | 0.54 | 20.46 | 0.32 | 13.97 | 14.66 | 30.75 | 3.47 | 3.99 | 6.88 | 0.66 | 2.71 | 1.78
5 | GRVIETLTS | 8.31 | 3.56 | 15.59 | 0.20 | 14.42 | 12.91 | 38.91 | 12.46 | 1.25 | 5.26 | 1.05 | 27.62 | 0.88
6 | RNLGKVIDT | 11.79 | 4.40 | 10.18 | 0.61 | 18.90 | 13.80 | 48.14 | 3.15 | 2.42 | 6.42 | 2.73 | 6.22 | 1.04
7 | AEL[Nle]GYIPL | 10.20 | 1.91 | 20.78 | 0.12 | 16.63 | 14.74 | 72.73 | 3.05 | 1.11 | 7.49 | 0.77 | 3.61 | 0.37
8 | [Cit]IGVRAT[Cit]R | 14.45 | 8.51 | 16.67 | 0.17 | 19.68 | 12.09 | 18.45 | 25.16 | 14.59 | 8.17 | 0.86 | 8.27 | 0.50
9 | IRNLGRVIE | 4.06 | 1.98 | 11.06 | 30.77 | 14.22 | 9.10 | 21.40 | 3.89 | 1.43 | 8.77 | 1.84 | 5.31 | 0.61
10 | TGNIPGSTY | 52.30 | 48.40 | 35.10 | 1.15 | 10.58 | 10.25 | 38.15 | 13.04 | 1.32 | 3.59 | 1.98 | 6.06 | 0.86
11 | NIPGSTYSL | 4.46 | 4.71 | 31.99 | 0.46 | 8.41 | 7.66 | 37.01 | 3.98 | 4.80 | 5.71 | 2.29 | 3.20 | 8.50
12 | LGKVIDTLT | 7.14 | 5.11 | 15.99 | 0.43 | 22.08 | 17.96 | 44.92 | 7.39 | 0.94 | 4.05 | 2.90 | 12.95 | 0.70
13 | GKVIDTLTC | 7.31 | 3.11 | 14.26 | 0.16 | 14.77 | 13.63 | 19.45 | 3.69 | 0.25 | 4.89 | 0.84 | 3.96 | 0.41
14 | YVTGNIPGS | 6.16 | 4.42 | 10.29 | 0.76 | 13.33 | 12.40 | 88.29 | 5.34 | 2.70 | 6.88 | 1.98 | 5.18 | 2.71
15 | NLGRVIETL | 16.29 | 2.82 | 16.44 | 0.07 | 18.24 | 15.58 | 38.91 | 2.86 | 1.47 | 11.97 | 1.66 | 4.53 | 0.86
